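How tested: cells in 96-well plates exposed to compound for 48 hours at five concentrations. GI50 is the concentration that inhibits growth by half. Definition used: TGI = concentration required for complete inhibition of growth.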
How the values were obtained:
Assay in all cases: NCI anticancer screen, dose series, 48 h
DU-145 prostate = test system: DU-145 prostate
HCC-2998 colon = test system: HCC-2998 colon
HOP-62 NSCLC = test system: HOP-62 NSCLC
NCI-H460 lung = test system: NCI-H460 lung
OVCAR-3 ovarian = test system: OVCAR-3 ovarian
OVCAR-4 ovarian = test system: OVCAR-4 ovarian
SF-295 CNS = test system: SF-295 CNS
SK-OV-3 ovarian = test system: SK-OV-3 ovarian
SN12C renal = test system: SN12C renal
SR leukemia = test system: SR leukemia

SMILES	GI50 (DU-145 prostate)	TGI (DU-145 prostate)	GI50 (HCC-2998 colon)	TGI (HCC-2998 colon)	GI50 (HOP-62 NSCLC)	TGI (HOP-62 NSCLC)	GI50 (NCI-H460 lung)	TGI (NCI-H460 lung)	GI50 (OVCAR-3 ovarian)	TGI (OVCAR-3 ovarian)	GI50 (OVCAR-4 ovarian)	TGI (OVCAR-4 ovarian)	GI50 (SF-295 CNS)	TGI (SF-295 CNS)	GI50 (SK-OV-3 ovarian)	TGI (SK-OV-3 ovarian)	GI50 (SN12C renal)	TGI (SN12C renal)	GI50 (SR leukemia)	TGI (SR leukemia)
COc1cc2c(cc1OCCCCCCNC(=O)c1cc3ccccc3[nH]1)N=CC1CCCN1C2=O (centres undefined)	21.6 µM	72.1 µM	35.8 µM	> 100 µM	50.2 µM	> 100 µM	16.8 µM	62.7 µM	6.17 µM	> 100 µM	89.4 µM	> 100 µM	31.1 µM	> 100 µM	64.8 µM	> 100 µM	65 µM	> 100 µM	–	–
Cn1cc(-c2csc(-c3cn(CCN4CCOCC4)c4ccc(F)cc34)n2)c2cccnc21	3.12 µM	> 100 µM	3.42 µM	16.4 µM	2.42 µM	7.59 µM	3.39 µM	> 100 µM	2.71 µM	9.27 µM	–	–	2.35 µM	7.15 µM	5.41 µM	51.6 µM	3.15 µM	> 100 µM	2.29 µM	6.9 µM
COc1ccc(-c2cc(-c3ccccc3)c(C#N)c(=O)[nH]2)cc1	–	–	–	> 100 µM	–	> 100 µM	–	> 100 µM	–	> 100 µM	–	> 100 µM	–	> 100 µM	–	> 100 µM	–	> 100 µM	–	> 100 µM
CC(=O)NNC(=O)c1nn(-c2ccc(Cl)cc2)cc1OC(C)=O	18.7 µM	> 100 µM	21.4 µM	> 100 µM	27.2 µM	> 100 µM	5.76 µM	> 100 µM	18.8 µM	> 100 µM	79.6 µM	> 100 µM	15.9 µM	> 100 µM	49.5 µM	> 100 µM	20.8 µM	> 100 µM	–	–
COc1cc2c(cc1OCCCCC(=O)Nc1ccc(-c3nc4ccccc4s3)cc1)N=C[C@@H]1CCCN1C2=O	–	–	1.58 µM	3.23 µM	2.45 µM	6.62 µM	1.67 µM	3.6 µM	1.86 µM	8.01 µM	2.82 µM	27.9 µM	0.556 µM	3.37 µM	4.48 µM	14.5 µM	2.81 µM	9.72 µM	0.548 µM	9.48 µM
CC(C)[C@@H](C(=O)O[C@@H]1/C=C/C(=O)O[C@@H](C)CCC/C=C/[C@@H]2C[C@H](O)C[C@H]21)[N+](C)(C)C	> 100 µM	> 100 µM	> 100 µM	> 100 µM	> 100 µM	> 100 µM	> 100 µM	> 100 µM	> 100 µM	> 100 µM	> 100 µM	> 100 µM	> 100 µM	> 100 µM	> 100 µM	> 100 µM	> 100 µM	> 100 µM	–	–
CCC(=N\NC(N)=S)/C(C)=N/O	–	> 100 µM	–	> 100 µM	–	> 100 µM	–	> 100 µM	–	> 100 µM	–	> 100 µM	–	> 100 µM	–	> 100 µM	–	> 100 µM	–	–
BrP(NC1CCCCCC1)(c1ccccc1)(c1ccccc1)c1ccccc1	–	29.9 µM	–	6.49 µM	–	35.5 µM	–	–	–	9.94 µM	–	–	–	12.2 µM	–	–	–	16.1 µM	–	> 100 µM
COc1ccc(S(=O)(=O)O)cc1NS(=O)(=O)c1ccc(C)cc1	–	> 100 µM	–	–	–	> 100 µM	–	> 100 µM	–	> 100 µM	–	> 100 µM	–	> 100 µM	–	> 100 µM	–	> 100 µM	–	> 100 µM
CC(=O)OC1CCC2(C)C(CCC3C2CCC2(C)C(C4=CC(=O)OC4)CCC32)C1 (centres undefined)	14.7 µM	40.3 µM	23.8 µM	> 100 µM	14.5 µM	38.3 µM	0.681 µM	11 µM	20.6 µM	86 µM	12.1 µM	95.1 µM	–	–	19.9 µM	49 µM	11.1 µM	99.1 µM	0.468 µM	10.9 µM
CCN(CC)c1ccc(/C=C/C(=O)c2cccc(NS(C)(=O)=O)c2)cc1	7.2 µM	> 100 µM	> 100 µM	> 100 µM	27.6 µM	> 100 µM	4.72 µM	> 100 µM	6.37 µM	> 100 µM	6.27 µM	> 100 µM	5.91 µM	> 100 µM	5.27 µM	> 100 µM	6.69 µM	> 100 µM	–	–
O=C1c2c(c3c4ccccc4n4c3c3c2c2ccccc2n3C/C=C\C4)C(=O)N1Cc1ccccc1	–	–	–	> 100 µM	–	> 100 µM	–	> 100 µM	–	> 100 µM	–	–	–	> 100 µM	–	> 100 µM	–	> 100 µM	–	> 100 µM
CSC(=S)N(C)NC(=O)c1cccc(C(=O)NN(C)C(=S)SC)n1	–	–	–	–	–	37.3 µM	–	> 100 µM	–	–	–	41 µM	–	16 µM	–	–	–	92 µM	–	> 100 µM
O=C(N/C(=C\c1ccc([N+](=O)[O-])cc1)c1nc2[nH]c(=S)[nH]c(=O)c2[nH]1)c1ccccc1	–	–	–	> 100 µM	–	–	–	–	–	> 100 µM	–	> 100 µM	–	> 100 µM	–	> 100 µM	–	> 100 µM	–	> 100 µM
O=C(c1ccc(Cl)cc1)N(C(=S)N1CCN(c2ccccn2)CC1)c1ccccc1	–	–	–	–	–	> 100 µM	–	> 100 µM	–	> 100 µM	–	> 100 µM	–	> 100 µM	–	> 100 µM	–	> 100 µM	–	> 100 µM
COc1ccc(CNc2nc3ccccc3nc2-c2cccs2)cc1OC	–	–	–	> 100 µM	–	> 100 µM	–	> 100 µM	–	> 100 µM	–	–	–	> 100 µM	–	–	–	> 100 µM	–	> 100 µM
CC(C)O/C=C1\C(=O)C2(SCCS2)[C@H]2CCCC[C@@H]12	–	–	–	> 100 µM	–	> 100 µM	–	> 100 µM	–	–	–	> 100 µM	–	–	–	> 100 µM	–	> 100 µM	–	> 100 µM
CCOC(=O)CNC(SC)=C(C#N)C#N	–	–	–	> 100 µM	–	> 100 µM	–	> 100 µM	–	> 100 µM	–	> 100 µM	–	> 100 µM	–	> 100 µM	–	> 100 µM	–	> 100 µM
Cc1cn(C2C=CC(=O)C(C)O2)c(=O)[nH]c1=O (centres undefined)	–	–	–	–	–	43.2 µM	–	35.5 µM	–	31.4 µM	–	–	–	31.3 µM	–	> 100 µM	–	29.8 µM	–	43.8 µM

Reference: PubChem BioAssay (NCI)
